In patent publication US20260007599A1, “TICAGRELOR IV FORMULATIONS FOR USE IN THE TREATMENT OF GRAM-POSITIVE BACTEREMIA” (Hyloris Developments SA, priority 2023, published 2026):

Columns and labels:
[1] = Storage stability of ticagrelor 6 mg/ml in HPβCD 40% w/w at pH 4.5, 5.5, 6.5, 40° C./75% RH, related substances by HPLC; assay type: physicochemical; settings: for Acetal impurity, average content / Amine impurity, average content / Impurity at relative retention time 1.52, average content / Oxidative impurity 1, average content / Oxidative impurity 2, average content / Regiomer impurity, average content / Sum impurities >0.05 / Total impurities / Triol Impurity, average content: 40° C./75% RH
Method: HPBCD was dissolved in a buffer solution of pH 4.5, 5.5 or 6.5 prepared separately in water. […] The ticagrelor in buffer solution was filtered through a 0.22 micron filtered and filled in USP Type I glass vials. The vials were stoppered and stored. All precautions were taken during manufacturing, such as N2 purging and avoiding direct exposure to light. The vials were stored at 40° C. and 75% Relative Humidity (RH). To determine the stability of the formulations, batches were evaluated using a related substance method on HPLC. A Gradient HPLC method was used to analyze impurities in formulations using a YMC-Pack Pro C18 column (100×4.6 mm, S-3 μm 12 nm). Good separation was obtained for all the impurities.

[2] = system: methicillin-resistant Staphylococcus epidermis (MRSE); settings: ex-vivo; cited from earlier work

CCCSc1nc(N[C@@H]2C[C@H]2c2ccc(F)c(F)c2)c2nnn([C@@H]3C[C@H](OCCO)[C@@H](O)[C@H]3O)c2n1 [ticagrelor, (1S,2S,3R,5S)-3-{7-[(1R,2S)-2-(3,4-difluorophenyl)cyclopropylamino]5-(propylthio)-3H-(1,2,3)triazolo (4,5-D)pyrimidin-3-yl}-5-(2 hydroxyethoxy) cyclopentane-1,2-diol]
0.16%: Sum impurities >0.05 ([1]; pH 5.5, T = 0)
0.42%: Regiomer impurity, average content ([1]; pH 4.5, T = 4 weeks)
0.41%: Total impurities ([1]; pH 6.5, T = 2 weeks)
0.03%: Impurity at relative retention time 1.52, average content ([1]; pH 4.5, T = 0) | Impurity at relative retention time 1.52, average content ([1]; pH 4.5, T = 4 weeks) | Impurity at relative retention time 1.52, average content ([1]; pH 5.5, T = 2 weeks) | Impurity at relative retention time 1.52, average content ([1]; pH 6.5, T = 0) | Impurity at relative retention time 1.52, average content ([1]; pH 6.5, T = 4 weeks)
0.22%: Sum impurities >0.05 ([1]; pH 4.5, T = 0) | Sum impurities >0.05 ([1]; pH 6.5, T = 0)
0.63%: Sum impurities >0.05 ([1]; pH 4.5, T = 4 weeks)
0.00%: Oxidative impurity 1, average content ([1]; pH 4.5, T = 0) | Oxidative impurity 2, average content ([1]; pH 4.5, T = 0) | Regiomer impurity, average content ([1]; pH 4.5, T = 0) | Oxidative impurity 1, average content ([1]; pH 4.5, T = 2 weeks) | Oxidative impurity 2, average content ([1]; pH 4.5, T = 2 weeks) | Regiomer impurity, average content ([1]; pH 4.5, T = 2 weeks) | Oxidative impurity 1, average content ([1]; pH 5.5, T = 0) | Oxidative impurity 2, average content ([1]; pH 5.5, T = 0) | Regiomer impurity, average content ([1]; pH 5.5, T = 0) | Oxidative impurity 1, average content ([1]; pH 5.5, T = 2 weeks) | Oxidative impurity 2, average content ([1]; pH 5.5, T = 2 weeks) | Regiomer impurity, average content ([1]; pH 5.5, T = 2 weeks) | Oxidative impurity 1, average content ([1]; pH 6.5, T = 0) | Oxidative impurity 2, average content ([1]; pH 6.5, T = 0) | Regiomer impurity, average content ([1]; pH 6.5, T = 0) | Oxidative impurity 1, average content ([1]; pH 6.5, T = 2 weeks) | Oxidative impurity 2, average content ([1]; pH 6.5, T = 2 weeks) | Regiomer impurity, average content ([1]; pH 6.5, T = 2 weeks) | Oxidative impurity 1, average content ([1]; pH 6.5, T = 4 weeks)
0.30%: Regiomer impurity, average content ([1]; pH 5.5, T = 4 weeks)
0.45%: Sum impurities >0.05 ([1]; pH 5.5, T = 4 weeks)
0.01%: Oxidative impurity 1, average content ([1]; pH 4.5, T = 4 weeks) | Oxidative impurity 1, average content ([1]; pH 5.5, T = 4 weeks)
30 microgram/ml: minimal bactericidal concentration [2]
~0.3%: regiomer impurity level ([1]; 4 weeks 40° C. and 75% RH, specification limit 0.3%)
0.23%: Sum impurities >0.05 ([1]; pH 4.5, T = 2 weeks) | Sum impurities >0.05 ([1]; pH 6.5, T = 2 weeks)
0.40%: Total impurities ([1]; pH 4.5, T = 2 weeks)
0.72%: Total impurities ([1]; pH 6.5, T = 4 weeks)
0.80%: Total impurities ([1]; pH 4.5, T = 4 weeks)
0.36%: Total impurities ([1]; pH 4.5, T = 0) | Total impurities ([1]; pH 5.5, T = 2 weeks) | Total impurities ([1]; pH 6.5, T = 0)
0.05%: Acetal impurity, average content ([1]; pH 4.5, T = 0) | Amine impurity, average content ([1]; pH 4.5, T = 0) | Triol Impurity, average content ([1]; pH 4.5, T = 0) | Amine impurity, average content ([1]; pH 4.5, T = 2 weeks) | Triol Impurity, average content ([1]; pH 4.5, T = 2 weeks) | Acetal impurity, average content ([1]; pH 4.5, T = 4 weeks) | Amine impurity, average content ([1]; pH 4.5, T = 4 weeks) | Triol Impurity, average content ([1]; pH 4.5, T = 4 weeks) | Acetal impurity, average content ([1]; pH 5.5, T = 0) | Triol Impurity, average content ([1]; pH 5.5, T = 0) | Acetal impurity, average content ([1]; pH 5.5, T = 2 weeks) | Amine impurity, average content ([1]; pH 5.5, T = 2 weeks) | Triol Impurity, average content ([1]; pH 5.5, T = 2 weeks) | Acetal impurity, average content ([1]; pH 5.5, T = 4 weeks) | Triol Impurity, average content ([1]; pH 5.5, T = 4 weeks) | Amine impurity, average content ([1]; pH 6.5, T = 0) | Amine impurity, average content ([1]; pH 6.5, T = 2 weeks) | Amine impurity, average content ([1]; pH 6.5, T = 4 weeks) | Triol Impurity, average content ([1]; pH 6.5, T = 4 weeks)
0.33%: Total impurities ([1]; pH 5.5, T = 0)
0.56%: Sum impurities >0.05 ([1]; pH 6.5, T = 4 weeks)
0.06%: Acetal impurity, average content ([1]; pH 4.5, T = 2 weeks) | Acetal impurity, average content ([1]; pH 6.5, T = 0) | Triol Impurity, average content ([1]; pH 6.5, T = 0) | Acetal impurity, average content ([1]; pH 6.5, T = 2 weeks) | Triol Impurity, average content ([1]; pH 6.5, T = 2 weeks) | Acetal impurity, average content ([1]; pH 6.5, T = 4 weeks)
0.04%: Impurity at relative retention time 1.52, average content ([1]; pH 4.5, T = 2 weeks) | Amine impurity, average content ([1]; pH 5.5, T = 0) | Amine impurity, average content ([1]; pH 5.5, T = 4 weeks) | Impurity at relative retention time 1.52, average content ([1]; pH 6.5, T = 2 weeks) | Oxidative impurity 2, average content ([1]; pH 6.5, T = 4 weeks)
0.35%: Regiomer impurity, average content ([1]; pH 6.5, T = 4 weeks)
0.21%: Sum impurities >0.05 ([1]; pH 5.5, T = 2 weeks)
0.02%: Oxidative impurity 2, average content ([1]; pH 4.5, T = 4 weeks) | Impurity at relative retention time 1.52, average content ([1]; pH 5.5, T = 0) | Impurity at relative retention time 1.52, average content ([1]; pH 5.5, T = 4 weeks) | Oxidative impurity 2, average content ([1]; pH 5.5, T = 4 weeks)
0.65%: Total impurities ([1]; pH 5.5, T = 4 weeks)
